Read-outs that look alike come from different tables or passages of the source.
What was measured:
CHO cells [1] = assay: Cytotoxicity screen in CHO cells; details: for IC50 at 48 h: Chinese hamster, CHO K1 cells; for Tox (Ant44) / tox (DFMO Assay): toxic above the stated concentration; for Tox (Ant44): listed with Ant44 assay; for tox (DFMO Assay): listed with DFMO assay
Experimental: CHO K1 cells were grown in growth medium to 70% confluency and washed in PBS and trypsinized. […] Cells were spun at 100×g for 1 minute and incubated at 37° C. in a humidified CO2 incubator for 24 hours. […] Cellular ATP content was then assayed by adding 3 uL of ATPLite with a Beckman BioRAPTR FRD dispenser and incubated for 10 minutes at room temperature. Plates were spun at 200×g for 1 minute and read on a Perkin Elmer Viewlux multimode plate reader using luminescence mode. This assay was used for testing dose-response of dry powders.
CHO K1 cells were grown in growth medium to 70% confluency and washed in PBS and trypsinized. Cells were plated in assay medium at 10000 cells/mL for 200 cells per well using a Thermo Multidrop Combi in 20 uL into a white Greiner plate. Cells were spun at 100×g for 1 minute and incubated at 37° C. in a humidified CO2 incubator for 24 hours. […] This was followed by adding by 10 μL of assay medium to all wells with a Beckman BioRAPTR FRD dispenser. The plates were spun at 200×g for 1 minute and incubated at 37° C. in a humidified 5% CO2 incubator for 48 hours. Cellular ATP content was then assayed by adding 20 μL of ATPLite with a Beckman BioRAPTR FRD dispenser and incubated for 10 min at room temperature. Plates were spun at 200×g for 1 minute and read on a Perkin Elmer Envision for multimode plate reader using luminescence mode. Duplicates were run for each compound concentration, and the curves represent the average of the duplicates as percent viability.
The final compound concentration was either 20 μM or 10 μg/mL (depending upon the compound source). A successful PTI in Assay 1 would block the uptake of the toxic Ant44 probe and rescue the cells back to >90% relative growth vs an untreated control. It was critical to also evaluate the toxicity of the PTI by itself as a toxic PTI would give a false negative in Assay1 (and a false positive in Assay 2). […] Assay 2 then evaluated the ability of the compound to inhibit the uptake of a rescuing dose of Spermidine (Spd, 1 μM) into DFMO-treated CHO cells.

CHO cells [2] = assay: Ant44 rescue assay in CHO cells (Assay 1); format: cell-based, Chinese hamster; details: for IC50 / EC50: Cricetulus griseus; for Ant44 EC40: Table 1; for Active in Ant44 assay?: Table 2, in CHO; for Ant44 IC50: Table 4B
Experimental: CHO K1 cells were grown in growth medium (RPMI+10% FBS+1×P/S+1% l-glutamine) to 70% confluency, washed in PBS and trypsinized. Cells were plated in assay medium (serum free RPMI+2% FBS+1×l-glutamine+1×P/S+[…] aminoguanidine) at 50000 cells/mL for 200 cells per well in 4 ul using a Thermo Multidrop Combi into a 1536-well white Aurora plate.
Ant44 is a cytotoxic polyamine, i.e., N^1-(9-anthracenyl)-homospermidine. A non-toxic PTI compound would block entry or intracellular trafficking of the Ant44 toxin and rescue the cells back to high viability. Therefore, this screen tested for compounds which rescued cells from Ant44 toxicity. […] This was followed by adding 10 uL of 10 uM Ant44 (FAC 2 uM) in assay medium with a Beckman BioRAPTR FRD dispenser or 10 uL of cells added in assay medium (positive control).

[3] = system: DFMO treated Chinese hamster ovary (CHO) cells; assay: DFMO/spermidine rescue assay in CHO cells (Assay 2); format: cell-based; details: for IC50 / EC50: Cricetulus griseus; for EC50: Table 2
Experimental: In the reconfirmation assay compounds were run in quadruplicate. […] A PTI compound is expected to block the entry or disrupt the intracellular trafficking of spermidine and inhibit the ability of spermidine to rescue the growth or viability of DFMO treated cells.
DFMO/Spermidine assay Here cells were treated with an inhibitor of polyamine biosynthesis (DFMO) and rescued back to high viability by the presence of exogenous polyamine (spermidine). Putative PTI compounds were screened for their ability to block the entry or intracellular trafficking of exogenous spermidine (or otherwise disrupt the intracellular trafficking of spermidine) by measuring cell viability in the presence of DFMO+spermidine+PTI compound. […] This was followed by adding 10 μL of […] and 5 μM spermidine (FAC 5 mM DFMO and 1 μM spermidine) in assay medium with a Beckman BioRAPTR FRD dispenser or 10 μL of 5 mM DFMO added in assay medium (positive control). […] A PTI compound is expected to block the entry or disrupt the intracellular trafficking of spermidine and inhibit the ability of spermidine to rescue the growth or viability of DFMO treated cells Cytotoxicity

[4] = CHO, Table 7, read-out: SAR IC50 Ant44 assay
[5] = Table 1 HTS top hits, CHO cells
[6] = CHO, Table 7, read-out: SAR IC50 DFMO assay
[7] = Table 1 HTS top hits, CHO cells, read-out: DFMO Assay IC50
[8] = Table 1 HTS top hits, CHO cells, read-out: Ant44 EC50
[9] = CHO, Table 2, Active in Ant44 assay?, read-out: Ant44 assay EC50 in CHO
[10] = CHO, Table 4B, read-out: DFMO/CHO IC50

| Compound | IC50 at 48 h (CHO cells [1]) [µM] | Tox (Ant44) (CHO cells [1]; CHO cells) | tox (DFMO Assay) (CHO cells [1]; CHO cells) | IC50 (CHO cells [2]; [4]) [µM] | IC50 [3, 6] [µM] | IC50 [3, 7] [µM] | EC50 (CHO cells [2]; [8]) [µM] | further results |
| --- | --- | --- | --- | --- | --- | --- | --- | --- |
| COc1ccc(C(=O)Nc2ccc(N3CCN(c4ccc(C(C)=O)cc4)CC3)cc2C(=O)O)cc1 [SBI-0800674] | 20 | > 5 µM | > 10 µM | > 40 | 21 | ~5 |  | Ant44 EC50 (CHO cells [2]; [5]): no effect |
| Cc1ccc(CC(=O)Nc2ccc(N3CCN(c4ccccc4Cl)CC3)cc2C(=O)O)cc1 [SBI-0800675] | > 40 | SBI- 0800675.0001 (31 EC50) Tox >31 μM | no tox | 16 | 32 | > 25 | 31 |  |
| COc1ccccc1C(=O)Nc1ccc(N2CCN(c3cccc(C)c3C)CC2)cc1C(=O)O [SBI-0800676] | 28 | SBI- 0800676.0001 (20 EC50) Tox >20 μM | SBI- 0800676.0001 (IC50 ~15, tox >15) μM | 2 | 23 | ~15 | 20 |  |
| COc1ccc(C(=O)Nc2ccc(N3CCN(c4ccccc4)CC3)cc2C(=O)O)cc1 [SBI-0800679] |  | SBI- 0800679.0001 EC40 near 20 μM, Tox >20 μM) | > 15 µM | > 40 | 15 | 10 to 15 |  | general toxicity (CHO cells [1]; CHO cells): modest level of toxicity; CHO MTD (CHO cells [1]; hamster): 10 µM; CHO MTD EC50 (CHO cells [1]; hamster): (17) μM; EC50 (CHO cells [2]; [9]): > 10 µM; Ant44 EC40 (CHO cells [2]; CHO cells): SBI- 0800679.0001 EC40 near 20 μM, Tox >20 μM); Active in Ant44 assay? (CHO cells [2]): Yes; Ant44 IC50 (CHO cells [2]; CHO cells): trace; activity in DFMO assay ([3]; CHO cells): active; EC50 ([3]; CHO): 10 µM; IC50 [3, 10]: 15 µM |
| COc1ccc(C(=O)Nc2ccc(N3CCN(c4ccc(OC)cc4)CC3)cc2C(=O)O)cc1 [SBI-0800680] | > 40 | ~5 µM | no tox | > 40 | > 40 | > 31 | 31 |  |
| COc1ccc(C(=O)Nc2ccc(N3CCN(c4ccccc4Cl)CC3)cc2C(=O)O)cc1 [SBI-0800682] | 28 | > 20 µM | > 10 µM | > 40 | 27 | 10 to 15 |  | Ant44 EC40 (CHO cells [2]; CHO cells): ~15 µM |
| CCOc1ccccc1N1CCN(c2ccc(NC(=O)c3ccc(OC)cc3)c(C(=O)O)c2)CC1 [SBI-0800683] | 37 | SBI- 0800683.0001 (20 μM EC50) Tox >20 μM | SBI- 0800683.0001 (IC50 ~20 μM, tox >20 μM) | > 40 | 20 | ~20 | 20 | CHO MTD (CHO cells [1]; hamster): 20 µM; CHO MTD EC50 (CHO cells [1]; hamster): (37) μM; EC50 (CHO cells [2]; [9]): ~20 µM; Active in Ant44 assay? (CHO cells [2]): Yes; Ant44 IC50 (CHO cells [2]; CHO cells): trace; EC50 ([3]; CHO): ~20 µM; IC50 [3, 10]: 20 µM |
| COc1ccc(C(=O)Nc2ccc(N3CCN(c4cccc(C)c4C)CC3)cc2C(=O)O)cc1 [SBI-0800686] |  | SBI- 0800686.0001 Tox >10, EC50 near 10 μM | SBI- 0800686.0001 (IC50 ~5, tox >5) μM |  |  | ~5 | ~10 |  |
| CCN(CC)C(=O)CN1CCN(c2ccc(NC(=O)c3ccc(OC)cc3)c(C(=O)O)c2)CC1 [SBI-0800690] | 28 |  | SBI- 0800690.0001 (IC50 ~20, tox >20) μM | > 40 | > 40 | ~20 |  | Ant44 EC50 (CHO cells [2]; [5]): SBI- 0800690.0001 No effect |
| COc1ccc(C(=O)Nc2ccc(N3CCCN(c4ncccn4)CC3)cc2C(=O)O)cc1 [SBI-0800691] | > 40 | No tox | No tox | 12 | > 40 |  | 10 to 15 | MTD CHO (CHO cells [1]; hamster): >32 µM; activity in Ant44 assay (CHO cells [2]; CHO cells): robust Ant44 uptake inhibition activity; EC50 (CHO cells [2]; CHO, Table 3, read-out: Ant44 rescue EC50 CHO): ~11 µM; IC50 (CHO cells [2]; Table 5B, CHO cells, read-out: Ant44 IC50): 12 µM; DFMO Assay IC50 [3, 5]: No effect; Active in DFMO assay? ([3]; Table 3, in CHO): No in CHO; DFMO/CHO IC50 ([3]; Table 5B): trace |
| COc1ccc(C(=O)Nc2ccc(N3CCC(N4CCCCC4)CC3)cc2C(=O)O)cc1 [SBI-0800694] | > 40 |  |  |  | > 40 |  |  |  |

From patent publication US11905268B2, “Anthranilic acid derivatives and their use in the treatment of human cancers” (UNIVERSITY OF CENTRAL FLORIDA RESEARCH FOUNDATION, INC., priority 2018, dated 2024)
